Experimental data as given in patent US20180243273A1, “Composition for Intravesical Administration for Treating Bladder Pain” (priority 2017, published 2018).

Assay: Storage of compositions with/without nitrogen-gassing and ascorbic acid, assay and impurities
Type: physicochemical
Conditions: phosphate buffer
Method: A possible beneficial effect of nitrogen-gassing during manufacturing and storage was assessed. Selected compositions were manufactured by dissolution of API via stirring for 24 h and stored after treatment with/without nitrogen at 25° C. or 6° C. for up to 28 days.
The manufactured batches consisted of phosphate buffer and vitamin E TPGS and were compared to compositions containing ascorbic acid 1%, additionally. API was used at 0.01 wt.-%, 0.02 wt.-% or 0.04 w.-%. The compositions were saturated with API, where 10 mg, 20 mg or 40 mg were dissolved in 100 g buffer containing 0.5 wt.-%, wt.-1% or 2 wt.-% vitamin E TPGS, respectively. The compositions were transferred into polystyrene bottles and stored at 25° C. or 6° C. A part of the compositions was treated with nitrogen during manufacturing and gassed with nitrogen prior to sealing (see FIG. 18). The compositions were tested for assay and purity of API after manufacturing, as well as after 7, 14 and 28 days.

[1] = vitamin E TPGS 0.5%, Asc. 1%, N2 +, API 0.01%, 6° C., t = 7 d
[2] = vitamin E TPGS 0.5%, Asc. 1%, N2 +, API 0.01%, 6° C., t = 14 d
[3] = vitamin E TPGS 0.5%, Asc. 1%, N2 +, API 0.01%, 6° C., t = 28 d
[4] = vitamin E TPGS 0.5%, Asc. 1%, N2 +, API 0.01%, 25° C., t = 7 d
[5] = vitamin E TPGS 0.5%, Asc. 1%, N2 +, API 0.01%, 25° C., t = 14 d
[6] = vitamin E TPGS 0.5%, Asc. 1%, N2 +, API 0.01%, 25° C., t = 28 d
[7] = vitamin E TPGS 0.5%, Asc. 1%, N2 +, API 0.01%, t = 0
[8] = vitamin E TPGS 0.5%, Asc. 1%, N2 −, API 0.01%, 6° C., t = 7 d
[9] = vitamin E TPGS 0.5%, Asc. 1%, N2 −, API 0.01%, 6° C., t = 14 d
[10] = vitamin E TPGS 0.5%, Asc. 1%, N2 −, API 0.01%, 6° C., t = 28 d
[11] = vitamin E TPGS 0.5%, Asc. 1%, N2 −, API 0.01%, 25° C., t = 7 d
[12] = vitamin E TPGS 0.5%, Asc. 1%, N2 −, API 0.01%, 25° C., t = 14 d
[13] = vitamin E TPGS 0.5%, Asc. 1%, N2 −, API 0.01%, 25° C., t = 28 d
[14] = vitamin E TPGS 0.5%, Asc. 1%, N2 −, API 0.01%, t = 0
[15] = vitamin E TPGS 0.5%, no Asc., N2 +, API 0.01%, 6° C., t = 28 d
[16] = vitamin E TPGS 0.5%, no Asc., N2 +, API 0.01%, 25° C., t = 7 d
[17] = vitamin E TPGS 0.5%, no Asc., N2 +, API 0.01%, 25° C., t = 14 d
[18] = vitamin E TPGS 0.5%, no Asc., N2 +, API 0.01%, t = 0
[19] = vitamin E TPGS 0.5%, no Asc., N2 −, API 0.01%, 6° C., t = 7 d
[20] = vitamin E TPGS 0.5%, no Asc., N2 −, API 0.01%, 6° C., t = 14 d
[21] = vitamin E TPGS 0.5%, no Asc., N2 −, API 0.01%, 6° C., t = 28 d
[22] = vitamin E TPGS 0.5%, no Asc., N2 −, API 0.01%, 25° C., t = 7 d
[23] = vitamin E TPGS 0.5%, no Asc., N2 −, API 0.01%, 25° C., t = 14 d
[24] = vitamin E TPGS 0.5%, no Asc., N2 −, API 0.01%, 25° C., t = 28 d
[25] = vitamin E TPGS 0.5%, no Asc., N2 −, API 0.01%, t = 0
[26] = vitamin E TPGS 1%, Asc. 1%, N2 +, API 0.02%, 6° C., t = 7 d
[27] = vitamin E TPGS 1%, Asc. 1%, N2 +, API 0.02%, 6° C., t = 14 d
[28] = vitamin E TPGS 1%, Asc. 1%, N2 +, API 0.02%, 6° C., t = 28 d
[29] = vitamin E TPGS 1%, Asc. 1%, N2 +, API 0.02%, 25° C., t = 7 d
[30] = vitamin E TPGS 1%, Asc. 1%, N2 +, API 0.02%, 25° C., t = 14 d
[31] = vitamin E TPGS 1%, Asc. 1%, N2 +, API 0.02%, 25° C., t = 28 d
[32] = vitamin E TPGS 1%, Asc. 1%, N2 +, API 0.02%, t = 0
[33] = vitamin E TPGS 1%, no Asc., N2 +, API 0.02%, 6° C., t = 7 d
[34] = vitamin E TPGS 1%, no Asc., N2 +, API 0.02%, 6° C., t = 14 d
[35] = vitamin E TPGS 1%, no Asc., N2 +, API 0.02%, 6° C., t = 28 d
[36] = vitamin E TPGS 1%, no Asc., N2 +, API 0.02%, 25° C., t = 7 d
[37] = vitamin E TPGS 1%, no Asc., N2 +, API 0.02%, 25° C., t = 14 d

With `CN(C)[C@]1(c2cccc(F)c2)CC[C@]2(CC1)c1[nH]c3ccccc3c1CCN2C(=O)/C=C/c1ccccc1` [API, cis-(E)-4-(3-fluorophenyl)-2′,3′,4′,9′-tetrahydro-N,N-dimethyl-2′-(1-oxo-3-phenyl-2-propenyl)-spiro[cyclohexane-1,1′[1H]-pyrido[3,4-b]indol]-4-amine] the Assay [1] was 65.65 µg/mL, the Impurities [1] was 0.65 % (a/a) and the Assay [2] was 65.65 µg/mL. The Impurities [2] was 29.21 % (a/a), the Assay [3] was 65.82 µg/mL and the Impurities [3] was 0.70 % (a/a). The Assay [4] was 63.63 µg/mL, the Impurities [4] was 1.00 % (a/a) and the Assay [5] was 61.53 µg/mL. The Impurities [5] was 1.74 % (a/a), the Assay [6] was 63.95 µg/mL and the Impurities [6] was 1.82 % (a/a). The Assay [7] was 66.61 µg/mL, the Impurities [7] was 0.58 % (a/a) and the Assay [8] was 66.21 µg/mL. The Impurities [8] was 0.70 % (a/a), the Assay [9] was 66.54 µg/mL and the Impurities [9] was 0.83 % (a/a). For the same compound, the Assay [10] was 66.15 µg/mL, the Impurities [10] was 0.70 % (a/a) and the Assay [11] was 65.66 µg/mL. For the same compound, the Impurities [11] was 0.53 % (a/a), the Assay [12] was 65.27 µg/mL and the Impurities [12] was 1.09 % (a/a). For the same compound, the Assay [13] was 61.46 µg/mL, the Impurities [13] was 1.36 % (a/a) and the Assay [14] was 66.81 µg/mL. For the same compound, the Impurities [14] was 0.66 % (a/a), the Assay [15] was 49.80 µg/mL and the Impurities [15] was 0.54 % (a/a). For the same compound, the Assay [16] was 49.76 µg/mL, the Impurities [16] was 0.36 % (a/a) and the Assay [17] was 49.65 µg/mL. The Impurities [17] was 1.19 % (a/a), the Assay [18] was 49.49 µg/mL and the Impurities [18] was 0.71 % (a/a). The Assay [19] was 50.43 µg/mL, the Impurities [19] was 0.63 % (a/a) and the Assay [20] was 50.71 µg/mL. For the same compound, the Impurities [20] was 0.94 % (a/a), the Assay [21] was 50.27 µg/mL and the Impurities [21] was 0.52 % (a/a). For the same compound, the Assay [22] was 50.56 µg/mL, the Impurities [22] was 0.45 % (a/a) and the Assay [23] was 50.23 µg/mL. For the same compound, the Impurities [23] was 1.13 % (a/a), the Assay [24] was 50.36 µg/mL and the Impurities [24] was 1.06 % (a/a). For the same compound, the Assay [25] was 50.22 µg/mL, the Impurities [25] was 0.68 % (a/a) and the Assay [26] was 109.93 µg/mL. The Impurities [26] was 0.73 % (a/a), the Assay [27] was 110.67 µg/mL and the Impurities [27] was 0.90 % (a/a). For the same compound, the Assay [28] was 110.25 µg/mL, the Impurities [28] was 0.91 % (a/a) and the Assay [29] was 107.03 µg/mL. For the same compound, the Impurities [29] was 1.04 % (a/a), the Assay [30] was 106.77 µg/mL and the Impurities [30] was 1.27 % (a/a). For the same compound, the Assay [31] was 93.34 µg/mL, the Impurities [31] was 1.79 % (a/a) and the Assay [32] was 110.99 µg/mL. For the same compound, the Impurities [32] was 0.62 % (a/a), the Assay [33] was 93.47 µg/mL and the Impurities [33] was 0.64 % (a/a). The Assay [34] was 93.72 µg/mL, the Impurities [34] was 0.75 % (a/a) and the Assay [35] was 93.93 µg/mL. For the same compound, the Impurities [35] was 0.58 % (a/a), the Assay [36] was 93.61 µg/mL and the Impurities [36] was 0.69 % (a/a). The Assay [37] was 93.28 µg/mL and the Impurities [37] was 0.86 % (a/a).
